Several values for one entry are separate records, joined by “and”; a condition that tells them apart may be missing. Identical values can stand only once. Inconclusive results and toxic doses are left out.
Tested on: BDF1 mice, L1210 terephthalanilide-resistant leukemia ip, survival T/C
Test: NCI In Vivo Anticancer Drug Screen. Data for tumor model L1210 Leukemia resistant to A Terephthalanilide; NSC 38280 (intraperitoneal) in B6D2F1 (BDF1) mice
Conditions: endpoint: mean survival time, higher = longer survival
Protocol: The antitumor activity of compounds was measured in mice bearing transplantable tumors. Survival or tumor size were measured and the results are expressed as the measurement made in the treated group (T) divided by the measurement made in the vehicle treated control group (C). The tumor model used in this assay is L1210 Leukemia resistant to A Terephthalanilide; NSC 38280 (intraperitoneal) in B6D2F1 (BDF1) mice

[1] = dose: 8.0 mg/kg/injection, schedule: Q01DX010 (ip), vehicle: saline
[2] = dose: 16.0 mg/kg/injection, schedule: Q01DX010 (ip), vehicle: saline
[3] = dose: 32.0 mg/kg/injection, schedule: Q01DX010 (ip), vehicle: saline
[4] = dose: 4.0 mg/kg/injection, schedule: Q01DX010 (ip), vehicle: saline
[5] = dose: 25.0 mg/kg/injection, schedule: Q01DX Z (ip), vehicle: carboxymethylcellulose (CMC)
[6] = dose: 100.0 mg/kg/injection, schedule: Q01DX Z (ip), vehicle: carboxymethylcellulose (CMC)
[7] = dose: 62.5 mg/kg/injection, schedule: Q01DX010 (ip), vehicle: saline
[8] = dose: 125.0 mg/kg/injection, schedule: Q01DX010 (ip), vehicle: saline

Compound: Nc1nc(SCc2ccccc2)c2[nH]cnc2n1
- T/C [1]: 92 % of control and 104 % of control
- T/C [2]: 104 % of control
- T/C [3]: 115 % of control
- T/C (dose: 62.5 mg/kg/injection, schedule: Q01DX Z (ip), vehicle: carboxymethylcellulose (CMC)): 111 % of control
- T/C (dose: 64.0 mg/kg/injection, schedule: Q01DX010 (ip), vehicle: saline): 95 % of control and 114 % of control
- T/C (dose: 125.0 mg/kg/injection, schedule: Q01DX Z (ip), vehicle: carboxymethylcellulose (CMC)): 107 % of control

Compound: CN=C(NC)c1ccc(NC(=O)Nc2ccc(NC(=O)Nc3ccc(C(=NC)NC)cc3)cc2)cc1
- T/C (dose: 13.3 mg/kg/injection, schedule: Q01DX010 (ip), vehicle: saline): 101 % of control
- T/C (dose: 20.0 mg/kg/injection, schedule: Q01DX010 (ip), vehicle: saline): 101 % of control

Compound: CN(C)c1ccc(/C=C/c2ccnc3ccccc23)cc1
- T/C [4]: 96 % of control and 97 % of control
- T/C (dose: 6.25 mg/kg/injection, schedule: Q01DX Z (ip), vehicle: saline): 90 % of control
- T/C [1]: 100 % of control and 101 % of control
- T/C (dose: 12.5 mg/kg/injection, schedule: Q01DX Z (ip), vehicle: saline): 100 % of control
- T/C [2]: 99 % of control and 100 % of control
- T/C (dose: 25.0 mg/kg/injection, schedule: Q01DX Z (ip), vehicle: saline): 100 % of control
- T/C [3]: 101 % of control
- T/C (dose: 50.0 mg/kg/injection, schedule: Q01DX Z (ip), vehicle: saline): 90 % of control
- T/C (dose: 75.0 mg/kg/injection, schedule: Q01DX Z (ip), vehicle: saline): 96 % of control and 100 % of control
- T/C (dose: 100.0 mg/kg/injection, schedule: Q01DX Z (ip), vehicle: saline): 94 % of control and 108 % of control
- T/C (dose: 150.0 mg/kg/injection, schedule: Q01DX Z (ip), vehicle: saline): 96 % of control and 102 % of control
- T/C (dose: 200.0 mg/kg/injection, schedule: Q01DX Z (ip), vehicle: saline): 94 % of control

Compound: Oc1cc(CN(CCCl)CCCl)c(O)cc1CN(CCCl)CCCl
- T/C (dose: 0.63 mg/kg/injection, schedule: Q01DX010 (ip), vehicle: saline): 116 % of control and 120 % of control
- T/C (dose: 1.0 mg/kg/injection, schedule: Q01DX Z (ip), vehicle: carboxymethylcellulose (CMC)): 121 % of control
- T/C (dose: 5.0 mg/kg/injection, schedule: Q01DX010 (ip), vehicle: saline): 108 % of control and 113 % of control
- T/C (dose: 6.0 mg/kg/injection, schedule: Q01DX Z (ip), vehicle: carboxymethylcellulose (CMC)): 150 % of control

Compound: O=C(Nc1ccc(NC2=NCCN2)cc1)c1ccc(C(=O)Nc2ccc(NC3=NCCN3)cc2)cc1
- T/C (dose: 2.0 mg/kg/injection, schedule: Q01DX010 (ip), vehicle: saline): 112 % of control and 113 % of control
- T/C [4]: 115 % of control
- T/C [2]: 122 % of control and 115 % of control

Compound: NC(=O)N(CCCl)N=O
- T/C (dose: 0.5 mg/kg/injection, schedule: Q01DX010 (ip), vehicle: saline): 162 % of control
- T/C (dose: 1.0 mg/kg/injection, schedule: Q01DX010 (ip), vehicle: saline): 165 % of control
- T/C (dose: 1.0 mg/kg/injection, schedule: Q01DX Z (ip), vehicle: saline): 348 % of control
- T/C (dose: 2.0 mg/kg/injection, schedule: Q01DX Z (ip), vehicle: saline): 252 % of control
- T/C (dose: 6.0 mg/kg/injection, schedule: Q01DX Z (ip), vehicle: saline): 110 % of control

Compound: CN(C)/N=N/c1nc[nH]c1C(N)=O
- T/C (dose: 25.0 mg/kg/injection, schedule: Q01DX010 (ip), vehicle: saline): 123 % of control and 101 % of control
- T/C (dose: 50.0 mg/kg/injection, schedule: Q01DX010 (ip), vehicle: saline): 114 % of control
- T/C (dose: 200.0 mg/kg/injection, schedule: Q01DX010 (ip), vehicle: saline): 102 % of control

Compound: Cn1c(O)c(N=NC(N)=S)c2ccccc21
- T/C [5]: 93 % of control
- T/C (dose: 50.0 mg/kg/injection, schedule: Q01DX Z (ip), vehicle: carboxymethylcellulose (CMC)): 90 % of control
- T/C [6]: 87 % of control
- T/C (dose: 200.0 mg/kg/injection, schedule: Q01DX Z (ip), vehicle: carboxymethylcellulose (CMC)): 89 % of control

Compound: c1ccc(CCSc2ncnc3nc[nH]c23)cc1
- T/C [7]: 90 % of control
- T/C [8]: 104 % of control
- T/C (dose: 250.0 mg/kg/injection, schedule: Q01DX010 (ip), vehicle: saline): 99 % of control

Compound: CCn1cnc2c(=S)nc[nH]c21
- T/C (dose: 15.6 mg/kg/injection, schedule: Q01DX010 (ip), vehicle: saline): 104 % of control
- T/C [5]: 113 % of control
- T/C (dose: 31.3 mg/kg/injection, schedule: Q01DX010 (ip), vehicle: saline): 106 % of control and 109 % of control
- T/C [7]: 95 % of control and 118 % of control
- T/C [6]: 155 % of control
- T/C [8]: 123 % of control and 106 % of control
